Measured values published in patent US8354128B2, “Blackberry leaf extract as an active ingredient against skin irritations and inflammations” (Symrise AG, priority 2005, dated 2013).

System: IL-1 alpha biosynthesis in human skin cells (HaCaT keratinocytes)
Assay: Anti-interleukin-1alpha assay: IL-1 alpha biosynthesis in A23187-stimulated HaCaT keratinocytes, ELISA of cell lysate
Format: cell-based
Details: vs stimulated control (0.2 μM A23187, 6 h)
Description: Since interleukin-1 alpha (IL-1 alpha) is a central inflammatory mediator in the skin, the inhibiting effect of the blackberry leaf extract on IL-1 alpha biosynthesis in human skin cells (HaCaT keratinocytes) was investigated. The cells are disseminated in a 96-well microtitre plate (MTP) on the previous day. On the day of the experiment, the test substance solutions are applied in medium in three different concentrations as a triple determination and incubated for 60 min at 37° C. and 5% CO2. Cellular IL-1 alpha biosynthesis is then stimulated by the addition of 0.2 μM A23187 calcium ionophore and the solutions are incubated for a further 6 h. The supernatant is drawn off and the cells undergo lysis through the addition of 1% Triton X 100. The IL-1 alpha in the cell lysate is quantified in an ELISA (human IL-1 alpha ELISA kit, EH2IL1A, Endogen).
The results set out below were obtained from two independent experiments. IL-1 alpha inhibition was calculated in comparison to the stimulated control.

Q: For `C[C@@H]1C[C@H]2[C@@H]3CCC4=CC(=O)C=C[C@]4(C)[C@@]3(F)[C@@H](O)C[C@]2(C)[C@@]1(O)C(=O)CO` [Dexamethasone], which inhibition at 0.01 µM (0.01 μM dexamethasone) is on record?
A: 28.8%

Q: What about the inhibition at 0.1 µM (0.1 μM dexamethasone) of the same molecule?
A: 37.7%

Q: And the inhibition at 1 µM (1 μM dexamethasone)?
A: 44.7%
